Laboratory results as given in the supplement of paper PMC10307832.

Columns and labels:
Test in all cases: relative viability (nuclei count vs DMSO), 5 days (fraction); higher = more cells survive
[1] = compound: C1COCCN1CC2=CC(=O)C(=CO2)OCCCCCSC3=C4C=CC(=CC4=NC=C3)C(F)(F)F [EHT 1864] + CC1(C)CCC(c2ccc(Cl)cc2)=C(CN2CCN(c3ccc(C(=O)NS(=O)(=O)c4ccc(N[C@H](CCN5CCOCC5)CSc5ccccc5)c(S(=O)(=O)C(F)(F)F)c4)cc3)CC2)C1 [Navitoclax] (partner 0.5 µM)
Summary of the method: (§1)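 One day after seeding in 1536-well plates, lung cancer cell lines were dosed by pin tool. Dosing was either single-drug or a fixed anchor-drug dose plus five library-drug doses (not always all listed) in √10 steps. After 5 days, nuclei were stained in one fix-and-stain step and counted on 4× images, and relative viability is the nuclei count of treated wells over that of vehicle wells, given as the median of duplicate plates.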

[2] = compound: C1COCCN1CC2=CC(=O)C(=CO2)OCCCCCSC3=C4C=CC(=CC4=NC=C3)C(F)(F)F [EHT 1864] + C[C@@H](Oc1cc(-c2cnn(C3CCNCC3)c2)cnc1N)c1c(Cl)ccc(F)c1Cl [Crizotinib] (partner 1 µM)
Summary of the method: as §1

[3] = compound: C1COCCN1CC2=CC(=O)C(=CO2)OCCCCCSC3=C4C=CC(=CC4=NC=C3)C(F)(F)F [EHT 1864] + Cc1cc(Nc2cc(N3CCN(C)CC3)nc(Sc3ccc(NC(=O)C4CC4)cc3)n2)n[nH]1 [Tozasertib] (partner 0.1 µM)
Summary of the method: as §1

[4] = compound: C1COCCN1CC2=CC(=O)C(=CO2)OCCCCCSC3=C4C=CC(=CC4=NC=C3)C(F)(F)F [EHT 1864] + O=C(CCCCCCC(=O)Nc1ccccc1)NO [Vorinostat] (partner 1 µM)
Summary of the method: as §1

Cell Line | relative viability ([1]; first compound 0.04 µM) | relative viability ([1]; first compound 0.1265 µM) | relative viability ([1]; first compound 0.4 µM) | relative viability ([1]; first compound 1.265 µM) | relative viability ([1]; first compound 4 µM) | relative viability ([2]; first compound 0.04 µM) | relative viability ([2]; first compound 0.1265 µM) | relative viability ([2]; first compound 0.4 µM) | relative viability ([2]; first compound 1.265 µM) | relative viability ([2]; first compound 4 µM) | relative viability ([3]; first compound 0.04 µM) | relative viability ([3]; first compound 0.1265 µM) | relative viability ([3]; first compound 0.4 µM) | relative viability ([3]; first compound 1.265 µM) | relative viability ([3]; first compound 4 µM) | relative viability ([4]; first compound 0.04 µM) | relative viability ([4]; first compound 0.1265 µM) | relative viability ([4]; first compound 0.4 µM) | relative viability ([4]; first compound 1.265 µM) | relative viability ([4]; first compound 4 µM)
SK-LU-1 | 0.867 | 0.768 | 0.824 | 1.01 | 0.744 | 0.982 | 0.865 | 0.927 | 0.911 | 0.737 | 0.313 | 0.286 | 0.274 | 0.297 | 0.293 | 0.81 | 0.726 | 0.725 | 0.707 | 0.679
NCI-H441 | 0.542 | 0.536 | 0.513 | 0.611 | 0.233 | 0.783 | 0.591 | 0.752 | 0.879 | 0.723 | 0.55 | 0.544 | 0.596 | 0.507 | 0.481 | 0.975 |  | 0.713 | 0.75 | 0.735
NCI-H1355 | 1.04 | 0.843 | 0.907 | 0.904 | 0.838 | 1.12 | 0.875 | 1.06 | 1.07 | 1.03 | 0.558 | 0.452 | 0.582 | 0.391 | 0.464 | 0.659 | 0.548 | 0.633 | 0.619 | 0.696
SW 1573 | 0.999 | 0.978 | 1.01 | 0.958 | 0.725 | 0.827 | 0.74 | 0.803 | 0.813 | 0.856 | 0.173 | 0.158 | 0.172 | 0.225 | 0.154 | 0.922 |  | 0.674 | 1.07 | 0.671
NCI-H2347 | 0.77 | 0.708 | 0.812 | 0.714 | 0.828 | 0.693 | 0.518 | 0.715 | 0.709 | 0.868 | 0.606 | 0.446 | 0.501 |  | 0.562 | 0.544 | 0.396 | 0.506 | 0.65 | 0.739
LCLC-97TM1 | 0.414 |  | 0.342 | 0.339 | 0.503 | 0.399 |  | 0.42 | 0.442 | 0.285 | 0.289 | 0.196 | 0.181 | 0.19 | 0.227 | 0.848 | 0.509 | 0.813 | 0.613 | 0.74
EMC-BAC-2 | 1.09 | 1.09 | 1.12 | 1.13 | 1.2 | 0.752 | 0.616 | 0.72 | 0.749 | 0.817 | 0.304 | 0.253 | 0.314 | 0.236 | 0.26 | 0.45 | 0.383 | 0.503 | 0.427 | 0.504
NCI-H1975 | 1.14 | 1.19 | 1.17 | 0.928 | 0.875 | 0.967 | 0.987 | 0.946 | 0.851 | 0.84 | 0.852 | 0.756 | 0.599 |  | 0.207 | 0.726 | 0.673 | 0.677 | 0.654 | 0.644
BEN | 0.0831 | 0.0599 | 0.0547 | 0.075 | 0.238 | 0.979 | 0.775 | 0.753 | 0.885 | 0.964 | 0.544 | 0.433 | 0.547 | 0.461 | 0.481 | 0.528 | 0.579 | 0.636 | 0.648 | 0.57
NCI-H23 | 0.718 |  | 0.627 | 0.784 | 0.816 | 0.488 |  | 0.513 | 0.496 | 0.5 | 0.397 | 0.372 | 0.373 | 0.291 | 0.367 | 0.627 | 0.343 | 0.582 | 0.578 | 0.532
NCI-H520 | 0.999 | 1.07 | 1.06 | 1.08 | 1.06 | 0.657 | 0.599 | 0.642 | 0.733 | 0.804 | 0.377 | 0.376 | 0.388 | 0.483 | 0.377 | 0.734 | 0.628 | 0.696 | 0.758 | 0.715
CAL-12T | 1.03 | 1.07 | 1.04 | 1.19 | 1.22 | 0.722 | 0.635 | 0.663 | 0.653 | 0.831 | 0.39 | 0.294 | 0.302 | 0.292 | 0.216 | 0.671 | 0.553 | 0.644 | 0.775 | 0.812
EPLC-272H | 1.11 | 1.05 | 1.18 | 1.28 | 1.24 | 0.928 | 0.861 | 0.855 | 0.915 | 1.01 | 0.299 | 0.352 | 0.143 | 0.314 | 0.284 | 0.454 | 0.565 | 0.567 | 0.662 | 0.33
NCI-H2405 | 0.978 | 0.832 | 0.965 |  | 0.725 | 0.835 | 0.809 | 0.837 | 0.816 | 0.918 | 0.8 | 0.678 | 0.847 | 0.633 | 0.726 | 1.03 | 0.895 | 1.06 | 0.963 | 0.909
HCC-15 | 0.732 | 0.576 | 0.682 | 0.649 | 0.736 | 0.752 | 0.635 | 0.801 | 0.82 | 0.821 | 0.377 |  | 0.398 | 0.319 | 0.247 | 0.77 |  | 0.838 | 0.81 | 0.929
PC-3 [JPC-3] | 0.788 | 0.72 | 0.849 | 0.844 | 0.805 | 0.973 | 0.979 | 0.925 | 0.909 | 1.01 | 0.818 | 0.812 | 0.903 | 0.896 | 0.843 | 0.886 | 0.718 | 0.83 | 0.77 | 0.801
NCI-H2170 | 0.674 | 0.511 | 0.646 | 0.573 | 0.56 | 1.15 | 1.17 | 1.2 | 1.18 | 1.21 | 0.7 | 0.52 | 0.775 | 0.692 | 0.658 | 0.789 | 0.692 | 0.774 | 0.84 | 0.94
HARA | 1.11 | 1.15 | 1.1 | 1.19 | 0.996 | 0.964 | 1 | 1.08 | 1.04 | 0.902 | 0.118 | 0.127 | 0.132 | 0.098 | 0.117 | 0.514 | 0.366 | 0.715 | 0.582 | 0.229
NCI-H2126 | 0.92 | 0.76 | 0.823 | 0.853 | 0.814 | 1.01 | 0.938 | 0.998 | 0.992 | 0.988 | 0.839 | 0.689 | 0.819 | 0.8 | 0.81 | 0.836 | 0.711 | 0.735 | 0.795 | 0.681
LXF-289 | 0.952 | 0.837 | 0.885 | 0.811 | 0.939 | 0.802 | 0.791 | 0.752 | 0.706 | 0.688 | 0.201 | 0.144 | 0.196 | 0.209 | 0.203 | 0.773 | 0.697 | 0.712 | 0.735 | 0.734
NCI-H460 | 1.11 | 1.16 | 1.03 | 1.16 | 1.02 | 0.805 | 0.85 | 0.769 | 0.888 | 0.799 | 0.398 | 0.453 | 0.384 | 0.174 | 0.152 |  | 0.718 | 0.703 | 0.654 | 0.647
NCI-H2009 | 1.16 | 1.15 | 1.14 | 1.11 | 0.879 | 0.978 | 1.01 | 1.08 | 0.962 | 0.711 | 0.736 | 0.648 | 0.765 | 0.532 | 0.476 | 0.69 | 0.698 | 0.72 | 0.627 | 0.612
